Data set [1] has as its system tubulin acetylation (the client protein of HDAC6) in NB4, U87 and U2OS cells. Nature of the data set: Western blot, acetylation of α-tubulin in cancer cell lines. Type of data set: cell-based. Particulars: 5 μM for 30 h; for acetylation of tubulin: NB4 and U87 cells. (A western blot detects proteins with antibodies after separation by electrophoresis.)
For data set [2], the system named is ABC derived from IPF patients. As to the kind of experiment: 3D organoid. Type of data set: cell-based, human. The following applies: ABC from IPF patients (n = 3), 14 days.
The test system of data set [3] is acetylation of histone H3 (primary substrate of HDAC1 and other nuclear HDACs) in NB4, U87 and U2OS cells. Nature of the data set: Western blot, acetylation of histone H3 in cancer cell lines. It is filed as cell-based. Particulars: 5 μM for 30 h.
Data set [4] has as its system TGF-β1-stimulated human lung parenchyma. Nature of the data set: Human lung tissue explant model of TGF-β1-dependent fibrogenesis. Type of data set: cell-based. The following applies: 6h 4.1 μM, TGF-β1 10 ng/ml, 7 days.
Data set [5] has as its system zebrafish larvae (Danio rerio). Nature of the data set: Toxicity screen and optokinetic visual behaviour assay in zebrafish larvae. Type of data set: in vivo.
Data set [6] deals with TA98 and TA100 strains of Salmonella typhimurium. Nature of the data set: Ames test with and without S9 fraction. It is filed as cell-based. The following applies: TA98 and TA100, with and without S9 fraction of rat liver, 1–75 μM. (In general: The Ames test detects mutagens through reverse mutation in bacteria.)

The values below come from paper PMC8300879 (Journal of medicinal chemistry, 2021).

Molecules are shown by their SMILES.

For the molecule `CN1CCC2(CC1)c1ccccc1N(Cc1ccc(C(=O)NO)cc1)C2c1ccccc1` (racemic) [(±)-6a, (±)-N-Hydroxy-4-((1’-methyl-2-phenylspiro[indoline-3,4’-piperidin]-1-yl)methyl)benzamide], the acetylation of tubulin result in data set [1] is reported as “marked acetylation of tubulin”. In addition, in data set [2], the spheres formation entry is listed as “complete inhibition”. The “histone H3 acetylation” value in data set [3] is reported as “unchanged”.
`CN1CCC2(CC1)c1ccccc1N(Cc1ccc(C(=O)NO)cc1)C2c1ccccc1F` (racemic) [(±)-6d, (±)-4-((2-(2-Fluorophenyl)-1’-methylspiro[indoline-3,4’-piperidin]-1-yl)methyl)-N-hydroxybenzamide]: in data set [1], the acetylation of tubulin result was “equally effective in inhibiting HDAC6”. Besides, the spheres formation result in data set [2] was “complete inhibition”. Also, the “histone H3 acetylation” value in data set [3] is “also induced the acetylation of histone H3”.
Turning to `CN1CCC2(CC1)c1ccccc1N(Cc1ccc(C(=O)NO)cc1)C2c1ccc(F)cc1` (racemic) [(±)-6e, (±)-4-((2-(4-Fluorophenyl)-1’-methylspiro[indoline-3,4’-piperidin]-1-yl)methyl)-N-hydroxybenzamide], the acetylation of tubulin result in data set [1] is “marked acetylation of tubulin”. Further, the “histone H3 acetylation” value in data set [3] was “unchanged”.
As for `CC1(C)c2ccccc2N(Cc2ccc(C(=O)NO)cc2)C1c1cccnc1` (racemic) [(±)-6h, (±)-4-((3,3-Dimethyl-2-(pyridin-3-yl)indolin-1-yl)methyl)-N-hydroxybenzamide], the “mRNA expression for HDAC6” value in data set [4] (n = 3 donors) is reported as “significantly inhibited”. Besides, in data set [4] (n = 6 donors), the “mRNA expression for collagen type I” value is recorded as “significantly inhibited”, the “mRNA expression for collagen type III” value was “significantly inhibited”, the “mRNA expression for fibronectin” value is “significantly inhibited” and the “mRNA expression for α-SMA” value was “significantly inhibited”. Also, the toxic effects observed entry in data set [5] (100 μM, 3 days old larvae treated for 2 days) was “some larvae failed to inflate their swim bladder and presented mild cardiac edema”. The well tolerated concentration entry in data set [5] (3 days old larvae treated for 2 days, 1-100 μM) is “up to 50 μM”. The “visual behavior versus vehicle control (0.1% DMSO)” value in data set [5] (five days old larvae, 1 to 100 μM) was “no significant changes”. Further, the acetylation of tubulin entry in data set [1] is on record as “marked acetylation of tubulin”. Besides, the spheres formation result in data set [2] is “complete inhibition”. The “histone H3 acetylation” value in data set [3] is given as “unchanged”. Also, in data set [6], the mutagenic effect result is reported as “no mutagenic effect”.
In the case of `CC1(C)c2ccccc2N(Cc2ccc(C(=O)NO)cc2)C1c1ccncc1` (racemic) [(±)-6l], in data set [1], the acetylation of tubulin entry is reported as “marked acetylation of tubulin”. Moreover, the “acetylation of α-tubulin versus histone H3” value in data set [1] (U2OS cell line) is recorded as “preferentially promote acetylation of α-tubulin”. The spheres formation result in data set [2] is “complete inhibition”. Also, in data set [3], the “histone H3 acetylation” value is “unchanged”.
